Where a name gives a salt, the structure may show the parent alone. Read-outs that look alike come from different tables or passages of the source.
Experiments:
[1] = test system: acid secretion in pylorus-ligated rats; experiment: Anti-secretory effect (histamine-stimulated gastric acid secretion) in pylorus-ligated rat; assay type: in vivo, male wistar rats; conditions: for ED50: read-out: ED 50 (acid secretion inhibition); for acid secretion inhibition: 5 rats
gastric mucus secretion = experiment: Effect on gastric mucus secretion in rats (alcian blue binding); assay type: in vivo, Wistar male rats; conditions: 10 mg/kg × 2/day orally for 7 days, * significant at 5%, ** at 1%; for Alcian blue binding: 7 rats; for % Change (Alcian blue binding): vs control (0.5% CMC)
Protocol: The test compounds were administered orally to Wistar male rats weighing from 160 to 180 g so as to investigate the effect on gastric mucus secretion. The amount of mucus was determined using alcian blue color specifically bonding with acid mucosaccharides, and was expressed by the amount of color bonding with a unit weight (OD units/g tissue). The test compounds were administered at a dosage of 10 mg/kg twice a day for 7 days, and the rats were sacrificed one hour after the final administration in the morning on the 8th day by cervical dislocation. After laparatomy, the stomach was removed. After removal of the forestomach, an incision was made along the greater curvatura. The stomach was lightly washed with a 0.25M sucrose solution cooled with ice. The weight was determined after absorption of water with a filter paper.
Then, the stomach was exposed for 1.5 hrs in 10 ml of 0.25M sucrose solution containing 0.1% alcian blue 8 GX for staining. Then, the stained stomach was washed with 10 ml of a 0.25M sucrose for 15 min, being dipped in 15 ml of a 0.5M MgCl2 for 2 hrs so as to elute alcian blue combined with the mucus. Finally, 10 ml of ethyl ether was added, and the mixture was shaken vigorously. The floating substances were removed, and the aqueous layer was quantified by measuring the absorption at 605 nm.
The above procedures were carried out at room temperature.

[2] = test system: acid secretion in pylorus-ligated rats; experiment: Anti-secretory effect (histamine-stimulated gastric acid secretion) in pylorus-ligated rat; assay type: in vivo, male wistar rats; conditions: Rattus norvegicus, sc, 3 h; 2 mg/kg s.c., 30 min before histamine 3 mg/kg s.c.; n=5; * significant at 5%, ** at 1% vs control; read-out: inhibitory effect of acid secretion (%) at 2 mg/kg s.c.
Protocol: (A) Anti-secretory Effect in Pylorus-ligated Rat
After 24 hr fasting, male wistar rats weighing about 160 g were anesthetized by intraperitoreal injection of urethans 1.2 g/kg. Then, after ligating the pylorus and the esophagus, the proventriculus was incised and a double polyethylene cannula was inserted. The gastric wall was washed out with 5 ml of physiological saline every 30 minutes and the amount of acid contained in the saline after washing was measured by titration. After measuring the basal acid secretion of the pylorus ligated rats three times, the compounds of the invention, 2 mg/kg, were administered subcutaneously and, 30 minutes thereafter, histamine 3 mg/kg, was administered also subcutaneously. Then, the amounts of acid secretion were measured for 3 hours. […] Then, an inhibition rate was calculated in accordance with the following formula, in relation to the increment values measured for the control group. [formula]
One group included five examples.

[3] = Acute oral toxicity test in mice (LD50, Litchfield-Wilcoxon); conditions: mouse, in vivo
Protocol: Male dd-mice were divided into groups of 5 and fasted for 8 hours. The test compounds were administered orally to the mice weighing from 19.7 g. to 22.0 g. The mice were observed survival or death as well as the general symptoms over 7 days after the administration of the compounds. The value of LD50 for each compound was estimated from the mortality observed on the basis of the Litchfield-Wilcoxon method.
In a similar test, the test compound of example 27, 35, 66, 84, 97, 104, 118, 125 or 129 was administered orally to the mice at a dose of 1500 mg/kg.

[4] = target: T1, histamine H2 receptor in atria (Cavia porcellus, UniProt P47747); experiment: Histamine H2 receptor inhibition effect by isolated guinea pig right atrium preparation (negative chronotropic effect); assay type: cell-based, Male Hartley Guinea Pig; conditions: 5×10^-6 mol sample 3 minutes prior to histamine, mean of five; for Kb: read-out: inhibitory effect of histamine H2 receptor in atria (pA2 value) (converted)
T1 construct: right atrium was isolated; from tissue; host or cells: isolated right atrium of male Hartley guinea pig
Protocol: (B) Measurement of Histamine H2 Receptor Inhibition Effect by Isolated Guinea Pig Right Atrium Preparation
Male Hartley Guinea Pig weighing around 400 g was sacrified by decapitation, and right atrium was isolated. The right atrium was suspended in an organ bath (50 ml) containing modified Ringer solution. Under application of a tensile load of 1 g, the heart rate was recorded by means of a polygraph. Histamine was applied cumulatively from 1×10^-7 mol to 3×10^-4 mol and a cumulative dosage response curve was drawn. Then, 5×10^-6 mol of the sample was administered 3 minutes prios to histamine application. The negative logarithmic value (pA2) of the specimen molarity required for shifting the curve to the right to double concentration was calculated.

[5] = similar test, oral dose of 1500 mg/kg

T1 sequence (P47747 whole entry): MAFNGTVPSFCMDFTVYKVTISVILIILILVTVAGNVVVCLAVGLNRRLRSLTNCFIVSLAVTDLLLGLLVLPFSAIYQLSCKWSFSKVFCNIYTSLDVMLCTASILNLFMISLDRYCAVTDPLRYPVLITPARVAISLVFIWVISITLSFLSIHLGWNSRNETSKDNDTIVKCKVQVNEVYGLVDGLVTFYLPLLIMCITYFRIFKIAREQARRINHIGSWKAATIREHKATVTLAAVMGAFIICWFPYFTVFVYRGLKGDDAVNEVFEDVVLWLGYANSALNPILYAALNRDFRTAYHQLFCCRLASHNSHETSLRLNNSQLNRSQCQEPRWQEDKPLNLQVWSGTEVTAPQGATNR

Compound | inhibition in vivo at 2 mg/kg [2] [%] | LD50 at 168 h [3, 5] [mg/kg] | Kb [4] [nM] | also measured
CN/C(=N/CCSCc1nc[nH]c1C)NC#N [Cimetidine, cimetidine, reference compound] | – | – | – | inhibition in vivo at 2 mg/kg ([1]; Rattus norvegicus, sc, 3 h, read-out: inhibitory effect of acid secretion (%) at 2 mg/kg s.c.): 63%; ED50 ([1]; Rattus norvegicus, sc): 2.77 µmol/kg; acid secretion inhibition ([1]; Table 2, dosage 2.0 μmol/kg): 37%; acid secretion inhibition ([1]; Table 2, dosage 5.9 μmol/kg): 75%; acid secretion inhibition ([1]; Table 2, dosage 17.8 μmol/kg): 83%
CNC(=NC#N)NCCCOc1ccc2[nH]c(NC(=N)N)nc2c1 [Example 8, N-cyano-N'-methyl-N"-[3-<5-(2-guanidinobenzimidazolyl)oxypropyl] guanidine] | – | – | – | Alcian blue binding (gastric mucus secretion): 0.55 ± 0.04 OD units/g tissue; % Change (Alcian blue binding) (gastric mucus secretion): +52.5%
CNC(=C[N+](=O)[O-])NCCCOc1ccc2[nH]c(CN(C)C)nc2c1 [Example 27, 1-nitro-2-methylamino-2-[3-<5-(2-dimethylaminomethylbenzimidazolyl)oxy>propylamino]ethylene] | 73 | > 1500 | 16200 | –
CNC(=NC#N)NCCSCc1ccc2[nH]c(CN(C)C)nc2c1 [Example 35, N-cyano-N'-methyl-N"-[2-<5-(2-dimethylaminomethylbenzimidazolyl)methylthio>ethyl]guanidine] | 64 | > 1500 | 646 | –
CN(C)Cc1nc2cc(OCCCNc3ncc(Cc4cccnc4)c(=O)[nH]3)ccc2[nH]1 [Example 66, 2-[3-<5-(2-dimethylaminomethylbenzimidazolyl)oxy>propylamino]-5-(3-pyridylmethyl)-4-pyrimidone] | 100 | > 1500 | 1950 | –
CN(C)Cc1cccc(Cc2cnc(NCCCOc3ccc4[nH]c(CN(C)C)nc4c3)[nH]c2=O)c1 [Example 70, 2-[3-<5-(2-dimethylaminomethylbenzimidazolyl)oxy>propylamino]-5-(3-dimethylaminomethylbenzyl)-4-pyrimidone] | 102 | – | 2450 | effective ratio ([1]; ED50 relative to cimetidine = 1.0): 25.2; ED50 ([1]; Rattus norvegicus, sc, pylorus-ligated rats, 95% confidence limit printed on following lines): 0.11 µmol/kg; acid secretion inhibition ([1]; Table 2, dosage 0.067 μmol/kg): 35%; acid secretion inhibition ([1]; Table 2, dosage 0.204 μmol/kg): 71%; acid secretion inhibition ([1]; Table 2, dosage 0.613 μmol/kg): 93%; LD50 at 168 h ([3]; oral, groups of 5, 7 days observation): 2800 mg/kg
CN(C)Cc1cccc(Cc2cnc(NCCSCc3ccc4[nH]c(CN(C)C)nc4c3)[nH]c2=O)c1 [Example 78, 2-[2-<5-(2-dimethylaminomethylbenzimidazolyl)methylthio>ethylamino]-5-(3-dimethylaminomethylbenzyl)-4-pyrimidone] | 107 | – | 1780 | Alcian blue binding (gastric mucus secretion): 0.45 ± 0.04 OD units/g tissue; % Change (Alcian blue binding) (gastric mucus secretion): +24.6%
O=c1[nH]c(NCCCOc2ccc3[nH]c(CN4CCCC4)nc3c2)nnc1Cc1cccnc1 [Example 84] | 75 | > 1500 | 2190 | –
CCNc1n[s+]([O-])nc1NCCCOc1ccc2[nH]c(CN(C)C)nc2c1 (stereo not drawn) [Example 102, 3-[3-<5-(2-dimethylaminomethylbensimidazolyl)oxi>propyl]amino-4-ethylamino-1,2,5-thiadiazol-1-oxide] | 68 | – | 2190 | –
CN(C)Cc1nc2cc(CSCCNC3=NS(=O)(=O)N=C3N)ccc2[nH]1 [Example 104, 3-[2-<5-(2-dimethylaminomethylbenzimidazolyl)methylthio>ethyl]amino-4-amino-1,2,5-thiadiazole-1.1-dioxide] | 96 | > 1500 | 1950 | –
Nc1n[s+]([O-])nc1NCCSCc1ccc2[nH]c(CN3CCCCC3)nc2c1 (stereo not drawn) [Example 105, 3-{2-[5-<2-(1-piperidinomethyl)benzimidazolyl>methylthio]ethyl}amino-4-amino-1,2,5-thiadiazole-1-oxide] | 92 | – | – | inhibitory effect of histamine H2 receptor in atria (pA2 value) [4]: 6.08
CNc1n[s+]([O-])nc1NCCSCc1ccc2[nH]c(CN(C)C)nc2c1 (stereo not drawn) [Example 106, 3-[2-<5-(2-dimethylaminomethylbenzimidazolyl)methylthio>ethyl]amino-4-methylamino-1,2,5-thiadiazole-1-oxide] | 89 | – | 537 | –
CCNc1n[s+]([O-])nc1NCCSCc1ccc2[nH]c(CN(C)C)nc2c1 (stereo not drawn) [Example 108, 3-[2-<5-(2-dimethylaminomethylbenzimidazolyl)methylthio>ethyl]amino-4-ethylamino-1,2,5-thiadiazole-1-oxide] | 77 | – | 1450 | –
C#CCNc1n[s+]([O-])nc1NCCSCc1ccc2[nH]c(CN(C)C)nc2c1 (stereo not drawn) [Example 109, 3-[2-<5-(2-dimethylaminomethylbenzimidazolyl)methylthio>ethyl]amino-4-(2-propinylamino)-1,2,5-thiadiazole-1-oxide] | 74 | – | 759 | –
C#CCNC1=NS(=O)(=O)N=C1NCCSCc1ccc2[nH]c(CN(C)C)nc2c1 [Example 110, 3-[2-<5-(2-dimethylaminomethylbenzimidazolyl)methylthio>ethyl]amino-4-(2-propynylamino)-1,2,5-thiadoazole-1,1-dioxide] | 68 | – | 1580 | –
CCNc1n[s+]([O-])nc1NCCCSc1ccc2[nH]c(NC(=N)N)nc2c1 (stereo not drawn) [Example 113, 3-N-[3-<5-(2-guanidinobenzimidazolyl)thio>propyl]amino-4-ethylamino-1,2,5-thiadiazole-1-oxide] | 63 | – | 8510 | –
NC(=O)N=C(N)CCCOc1ccc2[nH]c(CN3CCCCC3)nc2c1 [Example 118, N-carbamoyl-4-[5-<2-(1-piperidinomethyl)benzimidazolyl>oxy]butyroamidine.3hydrochloride] | – | > 1500 | – | –
CN(C)Cc1nc2cc(CSCCC(N)=NS(N)(=O)=O)ccc2[nH]1 [Example 121, N-sulfamoyl-3-[5-(2-dimethylaminomethylbenzimidazolyl)methylthio]propionamidine] | 76 | – | 562 | –
CN(C)Cc1nc2cc(CSCCCC(N)=NS(N)(=O)=O)ccc2[nH]1 [Example 122, N-sulfamoyl-4-[5-(2-dimethylaminomethylbenzimidazolyl)methylthio]butyroamidine] | 32 | – | 2450 | –
CN(C)Cc1nc2cc(CSCCC(N)=NC#N)ccc2[nH]1 [Example 125, N-cyano-3-[5-(2-dimethylaminomethylbenzimidazolyl)methylthio]propionamidine] | – | > 1500 | – | –
CN(C)Cc1nc2cc(CSCCC(N)=NC(N)=O)ccc2[nH]1 [Example 129, N-carbamoyl-3-[5-(2-dimethylaminomethylbenzimidazolyl)methylthio]propionamidine] | 72 | > 1500 | 759 | –

— patent publication US4550118A, “Heterocyclic compounds” (Ikeda Mohando Co., Ltd., priority 1982, dated 1985)
